Results published in US9957253B2, “Triaminopyrimidine compounds useful for preventing or treating malaria” (MMV MEDICINES FOR MALARIA VENTURE, priority 2014, dated 2018).
Where a name gives a salt, the structure may show the parent alone. Read-outs that look alike come from different tables or passages of the source.

Columns and labels:
Plasmodium berghei = assay: In vivo efficacy in the mouse malaria model (four day suppressive test); conditions: P. berghei infected mice, growth of parasites in blood
Procedure: In Vivo Efficacy in the Mouse Malaria Model In vivo efficacy against blood stages was measured in mice infected with Plasmodium berghei after four (once daily) days of dosing by oral route. Detailed protocol for this four day suppressive test is described in Fidock et al 2004, Nature Reviews Drug Discovery (3), p 509.

hepatocytes = assay: Metabolic stability assay (hepatocyte Clint), human; assay type: in vitro ADME; conditions: 1 μM compound
Procedure: Metabolic Stability Assay (Rat/Human Hepatocyte Clint)
Viability of cryopreserved hepatocytes was determined using trypan blue and the cell concentration was adjusted to 10^6 cells per mL with Leibovitz L-15 Buffer. 1 μM compound (in Acetonitrile; 0.01% DMSO) was incubated with 500 μL of hepatocytes (1 million cells per mL) in a NUNC plate. Reaction was stopped at different time points (0, 5, 15, 30, 60, 90 and 120 min) by addition of 3 volumes of chilled acetonitrile to 100 μL of reaction mixture and centrifuged at 4° C. for 15 min. Supernatants were analyzed using LC-MS/MS for substrate depletion.

[1] = Prediction of hepatic blood clearance (well stirred model), rat
[2] = Pharmacokinetic studies (IVPK/POPK) in male Wistar rats; assay type: in vivo; conditions: Rat; for Oral ‘F’ / ½ life (PO PK): 5 mg/kg Examples 7 and 10, 10 mg/kg Example 13; for clearance / Vd: male, Wistar, IV bolus, 0.5 mg/kg Examples 7 and 10, 2 mg/kg Example 13; for clearance: read-out: CL blood; for Vd: read-out: Vss blood
Procedure: All in vivo studies were approved by the institutional animal ethics committee. Pharmacokinetics following IV bolus (IVPK) or oral administration (POPK) of compounds was determined in male Wistar rats or male Beagle dogs. For IVPK in rats, Example 7 and Example 10 were administered as solutions in 20% DMA, 80% phosphate-buffered saline and Example 13 was administered as a solution in 10% v/v NMP, 20% v/v DMA in saline. For POPK, Example 7 and Example 10 were administered as suspensions in 20% DMA, 80% phosphate buffered saline and Example 13 was administered as a suspension in 0.5% HPMC and 0.1% Tween 80 through an oral gavage. Example 13 was administered to dogs as a solution in 10% Ethanol, 30% PEG 400, 60% saline for IVPK and as a suspension in 0.5% HPMC, and 0.1% Tween 80 for POPK. Doses used for rat and dog PK were 0.5 mg/kg for Examples 7 and 10 or 2 mg/kg for Example 13 (IVPK). Doses of 5 mg/kg for Examples 7 and 10 were used during POPK. Doses of 10 mg/kg were used for Example 13 during POPK studies. Blood samples were collected at 8 to 13 time points (0, 0.0833, 0.25, 0.283, 0.333, 0.417, 0.75, 1.25, 3.25, 6.25, 12.25, 24.25 h for dog IVPK; 0, 0.25, 0.5, 1, 1.5, 2, 3, 4, 8, 12, 24, 32, 48 h for dog POPK; 0.083, 0.25, 0.5, 1, 2, 4, 7, 24 h for rat IVPK; 0.25, 1, 3, 6, 12, 24, 36, 48 h for rat POPK) after dosing. Blood (rat) or plasma (dog) samples were analysed by LC-MS/MS. PK parameters were estimated by non-compartmental analysis in Phoenix®.

[3] = system: chloroquine-resistant K1 strain of P. falciparum; assay: In vitro antiplasmodial activity (SYBR I), K1 strain; assay type: cell-based, Plasmodium falciparum; conditions: Plasmodium falciparum
Procedure: Measuring In Vitro Antiplasmodial Activity
The test samples were tested in duplicate on two separate occasions against chloroquine sensitive NF54 (MRA-1000, MR4, ATCC, Manassas, Va.) and chloroquine-resistant K1 strains of P. falciparum. A modified method of Trager and Jensen was employed to maintain continuous in vitro cultures of asexual blood stages of P. falciparum (Trageret al., 1976, Science, 193, 673-675). Quantitative assessment of antiplasmodial activity in vitro was determined using the SYBR I method as described earlier (Johnson et al., 2007, Antimicrob. Agents Chemother., 51, 1926-1933).
The percent inhibition with respect to the drug-free control was plotted against the logarithm of drug concentration. The growth inhibition curves were fitted by nonlinear regression using the sigmoidal dose-response (variable slope) formula to yield the concentration-response curves. […] Chloroquine diphosphate (CQ) (Sigma), artesunate (Sigma), and pyrimethamine were used as reference drugs in all experiments.

human CYP 2C9 = human CYP 2C9 (Homo sapiens, UniProt P11712); assay: Time dependent CYP inhibition assay, CYP 2C9; assay type: in vitro ADME
human CYP 2C9, sequence (P11712 whole entry): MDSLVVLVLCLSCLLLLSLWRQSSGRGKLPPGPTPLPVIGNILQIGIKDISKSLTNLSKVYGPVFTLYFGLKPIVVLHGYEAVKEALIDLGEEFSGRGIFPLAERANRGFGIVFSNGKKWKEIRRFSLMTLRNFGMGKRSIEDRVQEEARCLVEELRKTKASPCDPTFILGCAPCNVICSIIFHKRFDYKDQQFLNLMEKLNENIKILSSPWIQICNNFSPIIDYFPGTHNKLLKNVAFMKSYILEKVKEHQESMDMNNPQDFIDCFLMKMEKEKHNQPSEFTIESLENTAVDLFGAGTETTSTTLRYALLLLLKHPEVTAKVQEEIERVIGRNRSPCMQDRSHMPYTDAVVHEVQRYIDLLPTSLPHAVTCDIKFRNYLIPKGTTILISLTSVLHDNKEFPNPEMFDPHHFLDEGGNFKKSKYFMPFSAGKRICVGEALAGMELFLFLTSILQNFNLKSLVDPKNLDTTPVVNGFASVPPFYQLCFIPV

human CYP 2D6 = target: T1, human CYP 2D6 (Homo sapiens, UniProt P10635); assay: CYP inhibition assay, CYP 2D6; assay type: in vitro ADME
T1 construct: Mixture of 180 μL of 20 mg/mL HLM and 90 μL of substrate cocktail solution; from tissue; host or cells: human liver microsomes (HLM)
T1 sequence (P10635 whole entry): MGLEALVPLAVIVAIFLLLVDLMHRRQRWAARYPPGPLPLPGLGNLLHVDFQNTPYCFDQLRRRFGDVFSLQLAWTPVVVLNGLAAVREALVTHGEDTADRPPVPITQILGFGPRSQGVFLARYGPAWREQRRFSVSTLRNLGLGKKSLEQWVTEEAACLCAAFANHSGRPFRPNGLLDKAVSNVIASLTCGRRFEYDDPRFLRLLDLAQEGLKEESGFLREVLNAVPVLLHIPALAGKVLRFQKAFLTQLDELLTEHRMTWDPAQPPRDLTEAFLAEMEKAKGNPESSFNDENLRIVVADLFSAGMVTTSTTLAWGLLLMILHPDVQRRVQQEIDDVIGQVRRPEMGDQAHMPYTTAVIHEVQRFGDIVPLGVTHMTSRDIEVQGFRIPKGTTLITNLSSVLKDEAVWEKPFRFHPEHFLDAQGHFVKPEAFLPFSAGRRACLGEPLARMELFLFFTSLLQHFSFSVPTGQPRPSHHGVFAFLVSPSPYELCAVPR
Procedure: This study was conducted using specific substrates for 5 major human CYP isozymes. These substrates were used as a cocktail (phenacetin, diclofenac, S-mephenytoin, bufuralol and midazolam which are predominantly metabolised by CYP 1A2, 2C9, 2C19, 2D6 and 3A4/5, respectively) at concentrations equivalent to their respective Km values. LC-MS-MS (MRM mode) was used to follow the formation of the CYP specific metabolites. A decrease in the formation of the metabolites in peak area to vehicle control was used to calculate the IC50 value. […] Test compound was used at 6 different concentrations ([…]) to estimate IC50.
The incubation was carried out in 96 deep well plates. Mixture of 180 μL of 20 mg/mL HLM and 90 μL of substrate cocktail solution was added to 15840 μL of phosphate buffer and 179 μL of this mixture was mixed with 1 μL of the test compound, inhibitor cocktail solution or vehicle in each well. The final concentration of DMSO:ACN in the assay mix was 0.3:0.7% v/v. The incubation plate was placed into the water bath and pre-warmed at 37° C. for 5 min before the reactions were started by the addition of 20 μL of 10 mmol/L NADPH solution in phosphate buffer. After the addition of NADPH, the incubation plate was incubated at 37° C. for a further 5 min. The reaction was quenched by the addition of 1 volume (200 μL) of cold ACN containing 3% formic acid and 40 nmol/L verapamil. The plates were kept on ice for 20 min and then centrifuged at 4000 rpm for 30 min to precipitate protein. The supernatant 180 μL was transferred to the analysis plate for LC/MS/MS analysis.

[4] = 3 mg/kg oral once daily for four days
[5] = 10 mg/kg oral once daily for four days
[6] = 30 mg/kg oral once daily for four days
[7] = K1 strain, chloroquine-resistant, read-out: Pf IC50—K1
[8] = human liver microsomes, substrate cocktail, read-out: IC50 CYP 2D6

Row | Compound | % Inhibition (Plasmodium berghei; [4]) | % Inhibition (Plasmodium berghei; [5]) | % Inhibition (Plasmodium berghei; [6]) | Hep. Clint (hepatocytes) | Predicted CLh blood [1] | Oral ‘F’ [2] | ½ life (PO PK) [2] | clearance ([2]; in vivo) | Vd ([2]; in vivo) | IC50 ([3]; K1, read-out: Pf IC50—K1) | IC50 (human CYP 2C9) | IC50 (human CYP 2D6) | % Inhibition (Plasmodium berghei; 15 mg/kg oral once daily for four days) | clearance ([2]; blood) | Vd ([2]; blood) | IC50 [3, 7] | IC50 (human CYP 2D6; [8])
1 | CCc1cc(Nc2ncc(N3CCN[C@H](C)C3)c(Nc3cc(C)n(C)n3)n2)nc(C)c1F [Example 7, (R)—N4-(1,5-dimethyl-1H-pyrazol-3-yl)-N2-(4-ethyl-5-fluoro-6-methylpyridin-2-yl)-5-(3-methylpiperazin-1-yl)pyrimidine-2,4-diamine dihydrochloride] | 6% | 28% | 100% | 2.7 μl/min/1E6 | 24.20 mL/min/kg | 31% | 10 h | 26.6 mL/min/kg | 12 L/kg | 0.045 µM | > 56 µM | > 30 µM |  |  |  |  | 
2 | Cc1nc(Nc2ncc(N3CCN[C@H](C)C3)c(Nc3cnn(C)n3)n2)cc(C2CC2)c1Cl [Example 10, (R)—N2-(5-chloro-4-cyclopropyl-6-methylpyridin-2-yl)-N4-(2-methyl-2H-1,2,3-triazol-4-yl)-5-(3-methylpiperazin-1-yl)pyrimidine-2,4-diamine dihydochloride] |  | 60% | 100% | 1.8 μl/min/1E6 | 16.10 mL/min/kg | 17% | 30 h |  |  |  | > 56 µM |  | 75% | 22.5 mL/min/kg | 9.7 L/kg | 0.019 µM | > 30 µM
3 | Cc1nc(Nc2ncc(N3CCN(C)[C@H](C)C3)c(Nc3cc(C)n(C)n3)n2)cc(C2CC2)c1F [Example 13, (R)—N2-(4-cyclopropyl-5-fluoro-6-methylpyridin-2-yl)-N4-(1,5-dimethyl-1H-pyrazol-3-yl)-5-(3,4-dimethylpiperazin-1-yl)pyrimidine-2,4-diamine] | 0% | 42% | 100% | 3.1 μl/min/1E6 | 18.80 mL/min/kg | 80% | 10 h |  |  |  | > 56 µM |  |  | 9.8 mL/min/kg | 7.9 L/kg | 0.015 µM | > 30 µM
